In patent US20220323406A1, “METHODS AND COMPOSITIONS FOR DIFFERENTIATING STEM CELLS” (Massachusetts Institute of Technology, priority 2019, published 2022):
Counter-ions that a name gives are not always drawn.

Tests used:
[1] = system: ENR+CD organoids (ISC to Paneth cell differentiation); test: Primary screen: CCh-stimulated lysozyme secretion LYZ.S, 2.5-D 384-well ENR+CD organoid differentiation; type: cell-based, mouse; conditions: primary screen
Text: (§1) High-throughput screening.

ENR+CD organoids = test: Primary screen: ATP (CellTiter-Glo 3D, CTG) cell number/viability, 2.5-D 384-well ENR+CD organoids; conditions: primary screen; for Z.CTG: standard z score;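 on all read-outs here: compounds given at plating and again on day 3 over a 6-day differentiation from ENR+CV stem-cell-enriched precursors, ATP measured on day 6, plate median as control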
[2] = system: ENR+CD organoids (ISC to Paneth cell differentiation); test: Primary screen: basal (non-stimulated) lysozyme secretion LYZ.NS, 2.5-D 384-well ENR+CD organoid differentiation; type: cell-based, mouse; conditions: primary screen; for Z.LYZ.NS: standard z score
Text: as §1

[3] = dose 0.08 uM, FC relative to plate median
[4] = dose 0.40 uM, FC relative to plate median
[5] = dose 2.00 uM, FC relative to plate median
[6] = dose 10.00 uM, FC relative to plate median

Structure (SMILES)	Dose.FC.LYZ.S [1, 3]	Dose.FC.LYZ.S [1, 4]	Dose.FC.LYZ.S [1, 5]	Dose.FC.LYZ.S [1, 6]	Dose.FC.CTG (ENR+CD organoids; [3])	Dose.FC.CTG (ENR+CD organoids; [4])	Dose.FC.CTG (ENR+CD organoids; [5])	Dose.FC.CTG (ENR+CD organoids; [6])	Dose.FC.LYZ.NS [2, 3]	Z.LYZ.NS ([2]; dose 0.08 uM)	Dose.FC.LYZ.NS [2, 4]	Z.LYZ.NS ([2]; dose 0.40 uM)	Dose.FC.LYZ.NS [2, 5]	Z.LYZ.NS ([2]; dose 2.00 uM)	Dose.FC.LYZ.NS [2, 6]	Z.LYZ.NS ([2]; dose 10.00 uM)	Dose.FC.LYZ.S ([1]; dose 0.08 uM)	Dose.FC.LYZ.S ([1]; dose 0.40 uM)	Dose.FC.LYZ.S ([1]; dose 2.00 uM)	Dose.FC.LYZ.S ([1]; dose 10.00 uM)	also measured
CC(C)NCC(O)COc1cccc2ccccc12 (stereo not drawn) [Propranolol HCl]	0.173 log2 fold change	0.204 log2 fold change	0.091 log2 fold change	0.040 log2 fold change	0.066 log2 fold change	0.054 log2 fold change	0.117 log2 fold change	0.168 log2 fold change	0.048 log2 fold change	0.418	0.074 log2 fold change	0.642	0.164 log2 fold change	1.427	0.032 log2 fold change	0.276	–	–	–	–	–
CCCS(=O)(=O)Nc1ccc(F)c(C(=O)c2c[nH]c3ncc(-c4ccc(Cl)cc4)cc23)c1F [Vemurafenib (PLX4032, RG7204)]	–	–	–	–	–	–	–	–	–	–	–	–	–	–	–	–	0.120 log2 fold change	0.150 log2 fold change	0.055 log2 fold change	0.022 log2 fold change	Dose.FC.CTG (ENR+CD organoids; dose 0.08 uM): 0.124 log2 fold change; Z.CTG (standard z score) (ENR+CD organoids; dose 0.08 uM): 0.297; Dose.FC.CTG (ENR+CD organoids; dose 0.40 uM): −0.082 log2 fold change; Z.CTG (standard z score) (ENR+CD organoids; dose 0.40 uM): −0.195; Dose.FC.CTG (ENR+CD organoids; dose 2.00 uM): −0.006 log2 fold change; Z.CTG (standard z score) (ENR+CD organoids; dose 2.00 uM): −0.014; Dose.FC.CTG (ENR+CD organoids; dose 10.00 uM): 0.030 log2 fold change; Z.CTG (standard z score) (ENR+CD organoids; dose 10.00 uM): 0.073; Dose.FC.LYZ.NS ([2]; dose 0.08 uM): 0.090 log2 fold change; Z.LYZ.NS (standard z score) ([2]; dose 0.08 uM): 0.786; Dose.FC.LYZ.NS ([2]; dose 0.40 uM): 0.053 log2 fold change; Z.LYZ.NS (standard z score) ([2]; dose 0.40 uM): 0.462; Dose.FC.LYZ.NS ([2]; dose 2.00 uM): 0.047 log2 fold change; Z.LYZ.NS (standard z score) ([2]; dose 2.00 uM): 0.411; Dose.FC.LYZ.NS ([2]; dose 10.00 uM): 0.030 log2 fold change; Z.LYZ.NS (standard z score) ([2]; dose 10.00 uM): 0.263
O=C1NC(=O)C(c2ccccc2[N+](=O)[O-])=C1Nc1ccc(O)c(Cl)c1 [SB415286]	0.159 log2 fold change	−0.008 log2 fold change	−0.053 log2 fold change	−0.042 log2 fold change	0.221 log2 fold change	−0.004 log2 fold change	−0.097 log2 fold change	0.123 log2 fold change	0.145 log2 fold change	1.262	0.012 log2 fold change	0.101	0.118 log2 fold change	1.024	−0.016 log2 fold change	−0.136	–	–	–	–	Z.CTG (ENR+CD organoids; dose 0.08 uM): 0.527; Z.CTG (ENR+CD organoids; dose 0.40 uM): −0.011; Z.CTG (ENR+CD organoids; dose 2.00 uM): −0.231; Z.CTG (ENR+CD organoids; dose 10.00 uM): 0.293
Nc1nc(N)c2nc(-c3ccccc3)c(N)nc2n1 [Triamterene]	–	–	–	–	–	–	–	–	–	–	–	–	–	–	–	–	0.048 log2 fold change	0.051 log2 fold change	−0.065 log2 fold change	−0.290 log2 fold change	Dose.FC.CTG (ENR+CD organoids; dose 0.08 uM): −0.029 log2 fold change; Dose.FC.CTG (ENR+CD organoids; dose 0.40 uM): −0.165 log2 fold change; Dose.FC.CTG (ENR+CD organoids; dose 2.00 uM): −0.101 log2 fold change; Dose.FC.CTG (ENR+CD organoids; dose 10.00 uM): −0.462 log2 fold change; Dose.FC.LYZ.NS ([2]; dose 0.08 uM): 0.103 log2 fold change; Z.LYZ.NS (standard z score) ([2]; dose 0.08 uM): 0.894; Dose.FC.LYZ.NS ([2]; dose 0.40 uM): 0.030 log2 fold change; Z.LYZ.NS (standard z score) ([2]; dose 0.40 uM): 0.266; Dose.FC.LYZ.NS ([2]; dose 2.00 uM): −0.056 log2 fold change; Z.LYZ.NS (standard z score) ([2]; dose 2.00 uM): −0.490; Dose.FC.LYZ.NS ([2]; dose 10.00 uM): −0.187 log2 fold change; Z.LYZ.NS (standard z score) ([2]; dose 10.00 uM): −1.630
